Results on 15 compounds are retold here after patent US8921546B2, “Imidazolothiazole compounds for the treatment of disease” (Ambit Biosciences Corporation, priority 2006, dated 2014).

In one assay the target is T1, CSF1R (Homo sapiens, UniProt P07333).
T1 construct: made in house
The experiment in a line: Binding constant (Kd) measurement, phage-displayed kinase competition binding assay, CSF1R. In short, it runs like this: (§1)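 Competition binding used human kinases fused to T7 phage and immobilized ATP-site ligands. Compound binding blocks kinase capture on the solid support. Bound phage-kinase was quantified by plaque assay or qPCR of the phage genome to give Kd.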

The target in another assay is T2, KIT (Homo sapiens, UniProt P10721).
T2 construct: made in house
T2 sequence (P10721 26-976): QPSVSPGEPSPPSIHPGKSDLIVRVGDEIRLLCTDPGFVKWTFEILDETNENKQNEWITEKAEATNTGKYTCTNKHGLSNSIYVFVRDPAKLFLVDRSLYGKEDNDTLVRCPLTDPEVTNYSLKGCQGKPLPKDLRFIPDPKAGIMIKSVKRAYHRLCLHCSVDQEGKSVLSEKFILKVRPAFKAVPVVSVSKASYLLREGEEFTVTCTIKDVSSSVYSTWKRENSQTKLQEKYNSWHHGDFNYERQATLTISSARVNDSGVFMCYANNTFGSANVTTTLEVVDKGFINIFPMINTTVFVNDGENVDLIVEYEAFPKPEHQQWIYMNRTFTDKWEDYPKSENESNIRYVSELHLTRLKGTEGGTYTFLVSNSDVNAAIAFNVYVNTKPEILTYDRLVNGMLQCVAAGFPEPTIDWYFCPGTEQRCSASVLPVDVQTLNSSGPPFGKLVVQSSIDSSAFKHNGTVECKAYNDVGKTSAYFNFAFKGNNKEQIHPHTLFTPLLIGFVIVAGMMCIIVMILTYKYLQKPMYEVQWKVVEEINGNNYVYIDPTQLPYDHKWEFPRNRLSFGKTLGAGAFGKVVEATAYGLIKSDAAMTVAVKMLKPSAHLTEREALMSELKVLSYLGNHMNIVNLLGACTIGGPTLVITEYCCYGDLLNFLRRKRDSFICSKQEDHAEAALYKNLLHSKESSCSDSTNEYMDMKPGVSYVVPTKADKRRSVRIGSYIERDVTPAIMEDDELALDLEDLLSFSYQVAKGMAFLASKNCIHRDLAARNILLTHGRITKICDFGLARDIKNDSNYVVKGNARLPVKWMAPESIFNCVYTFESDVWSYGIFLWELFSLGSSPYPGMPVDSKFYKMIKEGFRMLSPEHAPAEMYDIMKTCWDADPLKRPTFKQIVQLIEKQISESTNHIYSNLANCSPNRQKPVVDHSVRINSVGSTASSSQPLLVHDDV
The assay is described as follows: Binding constant (Kd) measurement, phage-displayed kinase competition binding assay, KIT. In short, it runs like this: as §1

For a further assay, the system named is MV4-11 cells. The experiment in a line: Cellular proliferation assay (MTS), MV4-11. It is filed as cell-based. As to conditions: Homo sapiens. In short, it runs like this: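 FLT3-ITD MV4-11 cells, 10,000/well in DMEM with 0.5% serum, exposed to compounds 3 days at 37 °C, 5% CO2. Viability read colorimetrically after 2 h MTS tetrazolium reduction; WT-FLT3 RS4-11 cells (20,000/well, RPMI 0.5% serum, 2 days) serve as control.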

In a further assay the target is T3, FLT3 (Homo sapiens, UniProt P36888).
T3 construct: made in house
T3 sequence (P36888 27-993): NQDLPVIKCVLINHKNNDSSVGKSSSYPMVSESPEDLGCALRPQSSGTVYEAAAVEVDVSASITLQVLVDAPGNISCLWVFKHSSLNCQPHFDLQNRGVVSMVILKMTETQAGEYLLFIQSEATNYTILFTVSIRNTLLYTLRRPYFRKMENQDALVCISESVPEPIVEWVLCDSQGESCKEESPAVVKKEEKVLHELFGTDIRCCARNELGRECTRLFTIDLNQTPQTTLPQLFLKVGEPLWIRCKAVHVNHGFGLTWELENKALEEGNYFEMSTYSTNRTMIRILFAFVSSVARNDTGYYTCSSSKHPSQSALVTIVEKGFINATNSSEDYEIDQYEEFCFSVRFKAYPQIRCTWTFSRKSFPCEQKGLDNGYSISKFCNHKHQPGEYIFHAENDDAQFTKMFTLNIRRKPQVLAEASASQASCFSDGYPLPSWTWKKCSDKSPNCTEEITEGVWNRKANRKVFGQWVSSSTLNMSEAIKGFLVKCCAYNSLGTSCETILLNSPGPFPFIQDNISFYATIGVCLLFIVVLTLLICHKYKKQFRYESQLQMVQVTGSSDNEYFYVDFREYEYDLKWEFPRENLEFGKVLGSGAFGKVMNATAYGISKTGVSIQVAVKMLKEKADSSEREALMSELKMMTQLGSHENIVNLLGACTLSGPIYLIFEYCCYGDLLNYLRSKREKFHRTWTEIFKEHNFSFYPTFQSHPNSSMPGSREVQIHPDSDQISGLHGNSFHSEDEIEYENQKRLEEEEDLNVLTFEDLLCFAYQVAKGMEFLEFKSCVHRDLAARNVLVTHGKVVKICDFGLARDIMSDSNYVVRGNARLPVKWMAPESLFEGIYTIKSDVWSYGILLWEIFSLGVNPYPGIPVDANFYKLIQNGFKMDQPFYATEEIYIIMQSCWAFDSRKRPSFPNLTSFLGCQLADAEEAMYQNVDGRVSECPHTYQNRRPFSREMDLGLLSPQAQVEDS
The experiment in a line: Binding constant (Kd) measurement, phage-displayed kinase competition binding assay, FLT3. The procedure, abridged:
as §1

[1] abbreviates: MV4-11 cells, 72 hour incubation, MTS, read-out: Cellular Assay MV-proliferation IC50.
Setting [2] is: read-out: Binding Assay FLT3 Kd.

Where a name gives a salt, the structure may show the parent alone. Read-outs that look alike come from different tables or passages of the source.

T1 sequence (P07333 20-972): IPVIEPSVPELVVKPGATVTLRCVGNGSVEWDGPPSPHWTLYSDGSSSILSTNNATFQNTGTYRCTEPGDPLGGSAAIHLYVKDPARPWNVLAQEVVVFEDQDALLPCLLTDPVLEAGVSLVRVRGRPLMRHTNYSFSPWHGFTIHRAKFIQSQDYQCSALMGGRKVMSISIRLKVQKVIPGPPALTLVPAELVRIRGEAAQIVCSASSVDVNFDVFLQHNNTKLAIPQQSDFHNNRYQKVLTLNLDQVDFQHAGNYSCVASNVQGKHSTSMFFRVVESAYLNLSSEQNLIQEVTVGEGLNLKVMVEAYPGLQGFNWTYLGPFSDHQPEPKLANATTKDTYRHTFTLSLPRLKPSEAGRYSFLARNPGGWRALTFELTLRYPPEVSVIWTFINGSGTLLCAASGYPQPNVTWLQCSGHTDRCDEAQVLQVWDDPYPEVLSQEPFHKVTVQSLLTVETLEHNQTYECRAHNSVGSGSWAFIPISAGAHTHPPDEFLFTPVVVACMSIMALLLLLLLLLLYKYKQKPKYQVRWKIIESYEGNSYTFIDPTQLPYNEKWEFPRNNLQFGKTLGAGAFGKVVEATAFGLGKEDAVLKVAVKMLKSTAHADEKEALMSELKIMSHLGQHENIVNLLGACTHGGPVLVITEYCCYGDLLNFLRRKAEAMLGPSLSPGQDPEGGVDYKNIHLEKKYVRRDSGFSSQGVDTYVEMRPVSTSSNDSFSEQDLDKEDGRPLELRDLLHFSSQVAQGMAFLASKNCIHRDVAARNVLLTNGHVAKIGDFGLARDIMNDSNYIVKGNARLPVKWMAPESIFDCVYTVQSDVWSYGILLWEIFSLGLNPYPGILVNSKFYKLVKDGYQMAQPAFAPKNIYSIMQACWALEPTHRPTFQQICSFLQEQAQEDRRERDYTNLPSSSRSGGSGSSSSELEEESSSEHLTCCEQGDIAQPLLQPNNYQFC

`CC(C)(C)c1cc(NC(=O)Nc2ccc(-c3cn4c(n3)sc3cc(CCCN5CCOCC5)ccc34)cc2)no1` [Compound D3, 1-(5-tert-Butyl-isoxazol-3-yl)-3-{4-[7-(3-morpholin-4-yl-propyl)-benzo[d]imidazo[2,1-b]thiazol-2-yl]-phenyl}-urea]: the Kd (in general, the equilibrium constant for the complex coming apart) at CSF1R was 0.01 to 0.1 µM; at KIT, less than 0.01 µM; at FLT3 (setting [2]), less than 0.01 µM. Besides, in the assay on MV4-11 cells (setting [1]), the IC50 was less than 10 nM.
For `CC(C)(C)c1cc(NC(=O)Nc2ccc(-c3cn4c(n3)sc3cc(CCCN5CCCCC5)ccc34)cc2)no1` [Compound D4, N-(5-tert-Butyl-isoxazol-3-yl)-N′-{4-[7-(3-piperidin-1-yl-propyl)imidazo[2,1-b][1,3]benzothiazol-2-yl]phenyl}urea hydrochloride], the Kd was 0.01 to 0.1 µM at CSF1R, 0.01 to 0.1 µM on KIT and less than 0.01 µM on FLT3. The IC50 in the assay with MV4-11 cells (setting [1]) was less than 10 nM.
Take `CC(C)(C)c1cc(NC(=O)Nc2ccc(-c3cn4c(n3)sc3cc(CCN5CCOCC5)ccc34)cc2)no1` [Compound D5, 1-(5-tert-Butyl-isoxazol-3-yl)-3-{4-[7-(2-morpholin-4-yl-ethyl)-imidazo[2,1-b][1,3]benzothiazol-2-yl]-phenyl}-urea hydrochloride]: the Kd on CSF1R, on KIT and on FLT3 was less than 0.01 µM throughout. Also, in the assay with MV4-11 cells (setting [1]), the IC50 is less than 10 nM.
For the compound `CC(C)(C)c1cc(NC(=O)Nc2ccc(-c3cn4c(n3)sc3cc(CCN5CCCCC5)ccc34)cc2)no1` [Compound D6, 1-(5-tert-Butyl-isoxazol-3-yl)-3-{4-[7-(2-piperidin-1-yl-ethyl)-imidazo[2,1-b][1,3]benzothiazol-2-yl]-phenyl}urea hydrochloride], the Kd at CSF1R, on KIT and at FLT3 was less than 0.01 µM each time. The IC50 in the assay on MV4-11 cells (setting [1]) was less than 10 nM.
With `CCN1CCN(CCc2ccc3c(c2)sc2nc(-c4ccc(NC(=O)Nc5cc(C(C)(C)C)on5)cc4)cn23)CC1` [Compound D7, 1-(5-tert-Butyl-isoxazol-3-yl)-3-(4-{7-[2-(4-ethyl-piperazin-1-yl)-ethyl]-imidazo[2,1-b][1,3]benzothiazol-2-yl}-phenyl)-urea hydrochloride], the Kd at CSF1R, on KIT and on FLT3 was less than 0.01 µM throughout. Also, in the assay with MV4-11 cells (setting [1]), the IC50 is less than 10 nM.
For the compound `CC(C)(C)c1cc(NC(=O)Nc2ccc(-c3cn4c(n3)sc3cc(CN5CCOCC5)ccc34)cc2)no1` [Compound D8, 1-(5-tert-Butyl-isoxazol-3-yl)-3-[4-(7-morpholin-4-ylmethyl-imidazo[2,1-b][1,3]benzothiazol-2-yl)-phenyl]-urea hydrochloride], the Kd is 0.01 to 0.1 µM on CSF1R, less than 0.01 µM at KIT and less than 0.01 µM on FLT3. The IC50 in the assay on MV4-11 cells (setting [1]) is less than 10 nM.
`CCN1CCN(Cc2ccc3c(c2)sc2nc(-c4ccc(NC(=O)Nc5cc(C(C)(C)C)on5)cc4)cn23)CC1` [Compound D9, 1-(5-tert-Butyl-isoxazol-3-yl)-3-{4-[7-(4-ethyl-piperazin-1-ylmethyl)-imidazo[2,1-b][1,3]benzothiazol-2-yl]-phenyl}-urea hydrochloride]: the Kd on CSF1R is 0.01 to 0.1 µM; at KIT it was less than 0.01 µM; on FLT3 (setting [2]), less than 0.01 µM. The IC50 in the assay with MV4-11 cells (MV4-11, 72 h, read-out: Cellular Assay MV-proliferation IC50 (nM)) is less than 10 nM.
Regarding `CC(C)(C)c1cc(NC(=O)Nc2ccc(-c3cn4c(n3)sc3cc(CN5CCCCC5)ccc34)cc2)no1` [Compound D10, 1-(5-tert-Butyl-isoxazol-3-yl)-3-[4-(7-piperidin-1-ylmethyl-imidazo[2,1-b][1,3]benzothiazol-2-yl)-phenyl]urea hydrochloride], the dissociation constant Kd on CSF1R was 0.01 to 0.1 µM; at KIT, less than 0.01 µM; at FLT3, less than 0.01 µM. In the assay with MV4-11 cells (setting [1]), the IC50 was less than 10 nM.
Take `O=C(CCc1ccc2c(c1)sc1nc(-c3ccc(NC(=O)N4CCOCC4)cc3)cn12)N1CCOCC1` [Compound E1, Morpholine-4-carboxylic acid {4-[7-(3-morpholin-4-yl-3-oxo-propyl)-benzo[d]imidazo[21-b]thiazol-2-yl]-phenyl}amide]: the Kd was more than 1 µM at CSF1R, more than 1 µM on KIT and 0.1 to 1 µM at FLT3 (setting [2]). Besides, in the assay with MV4-11 cells (setting [1]), the IC50 was more than 100 nM.
In the case of `O=C(Cc1noc2ccccc12)Nc1ccc(-c2cn3c(n2)sc2cc(OCCN4CCOCC4)ccc23)cc1` [Compound E2, 2-benzo[d]isoxazol-3-yl-N-{4-[7-(2-morpholin-4-yl-ethoxy)-benzo[d]imidazo[2,1-b]thiazol-2-yl]-phenyl}-acetamide], the results for the Kd on CSF1R, at KIT and on FLT3 (setting [2]) were more than 1 µM, 0.01 to 0.1 µM and less than 0.01 µM, respectively. Besides, the IC50 in the assay with MV4-11 cells (setting [1]) was less than 10 nM.
`Cc1nc(C(F)(F)F)c(C(=O)Nc2ccc(-c3cn4c(n3)sc3cc(OCCN5CCOCC5)ccc34)cc2)s1` [Compound E3, 2-methyl-4-trifluoromethyl-thiazole-5-carboxylic acid {4-[7-(2-morpholin-4-yl-ethoxy)-benzo[d]imidazo[2,1-b]thiazol-2-yl]-phenyl}-amide]: the Kd on CSF1R, at KIT and on FLT3 (setting [2]) was more than 1 µM throughout. The IC50 in the assay on MV4-11 cells (setting [1]) was more than 100 nM.
As to `Cc1nc(-c2ccc(Cl)cc2)sc1C(=O)Nc1ccc(-c2cn3c(n2)sc2cc(OCCN4CCOCC4)ccc23)cc1` [Compound E4, 2-(4-chloro-phenyl)-4-methyl-thiazole-5-carboxylic acid {4-[7-(2-morpholin-4-yl-ethoxy)-benzo[d]imidazo[2,1-b]thiazol-2-yl]-phenyl}-amide], the Kd at CSF1R lay within 0.1 to 1 µM; at KIT, 0.1 to 1 µM; on FLT3 (setting [2]), 0.01 to 0.1 µM. Besides, the IC50 in the assay with MV4-11 cells (setting [1]) is 10 to 100 nM.
Take `O=C(Nc1ccc(-c2cn3c(n2)sc2cc(OCCN4CCOCC4)ccc23)cc1)Nc1ccc2c(c1)OCCO2` [Compound F1, 1-(2,3-Dihydro-benzo[1,4]dioxin-6-yl)-3-{4-[7-(2-morpholin-4-yl-ethoxy)-benzo[d]imidazo[2,1-b]thiazol-2-yl]-phenyl}-urea]: the results for the Kd on CSF1R, on KIT and on FLT3 (setting [2]) were 0.1 to 1 µM, less than 0.01 µM and less than 0.01 µM, respectively. The IC50 with MV4-11 cells (setting [1]) was less than 10 nM.
As for `CC(C)(C)c1ccc(NC(=O)Nc2ccc(-c3cn4c(n3)sc3cc(OCCN5CCOCC5)ccc34)cc2)cc1` [Compound F2, 1-(4-tert-Butyl-phenyl)-3-{4-[7-(2-morpholin-4-yl-ethoxy)-benzo[d]imidazo[2,1-b]thiazol-2-yl]-phenyl}-urea], the figures for the Kd on CSF1R, on KIT and on FLT3 (setting [2]) were 0.01 to 0.1 µM, less than 0.01 µM and less than 0.01 µM, respectively. For the same compound, in the assay with MV4-11 cells (setting [1]), the IC50 was less than 10 nM.
As to `Cc1nc2cc(NC(=O)Nc3ccc(-c4cn5c(n4)sc4cc(OCCN6CCOCC6)ccc45)cc3)ccc2s1` [Compound F8, 1-(2-methyl-benzothiazol-5-yl)-3-{4-[7-(2-morpholin-4-yl-ethoxy)-benzo[d]imidazo[2,1-b]thiazol-2-yl]-phenyl}-urea], the Kd on CSF1R was 0.1 to 1 µM; on KIT it was 0.01 to 0.1 µM; at FLT3 (setting [2]), less than 0.01 µM. In addition, in the assay with MV4-11 cells (setting [1]), the IC50 is less than 10 nM.
